From patent US20250122539A1, “LARGE SCALE PRODUCTION OF DIVARIN, DIVARINIC ACID AND OTHER ALKYL RESORCINOLS BY FERMENTATION” (priority 2021, published 2025)

B1: CsAAE1: Cannabis sativa acyl activating enzyme 1 (SEQ ID NO: 4), codon-optimized for S. cerevisiae, on plasmid pLOA-059 (protein, listed as Cannabis sativa)
chain: MGKNYKSLDSVVASDFIALGITSEVAETLHGRLAEIVCNYGAATPQTWINIANHILSPDLPFSLHQMLFYGCYKDFGPAPPAWIPDPEKVKSTNLGALLEKRGKEFLGVKYKDPISSFSHFQEFSVRNPEVYWRTVLMDEMKISFSKDPECILRRDDINNPGGSEWLPGGYLNSAKNCLNVNSNKKLNDTMIVWRDEGNDDLPLNKLTLDQLRKRVWLVGYALEEMGLEKGCAIAIDMPMHVDAVVIYLAIVLAGYVVVSIADSFSAPEISTRLRLSKAKAIFTQDHIIRGKKRIPLYSRVVEAKSPMAIVIPCSGSNIGAELRDGDISWDYFLERAKEFKNCEFTAREQPVDAYTNILFSSGTTGEPKAIPWTQATPLKAAADGWSHLDIRKGDVIVWPTNLGWMMGPWLVYASLLNGASIALYNGSPLVSGFAKFVQDAKVTMLGVVPSIVRSWKSTNCVSGYDWSTIRCFSSSGEASNVDEYLWLMGRANYKPVIEMCGGTEIGGAFSAGSFLQAQSLSSFSSQCMGCTLYILDKNGYPMPKNKPGIGELALGPVMFGASKTLLNGNHHDVYFKGMPTLNGEVLRRHGDIFELTSNGYYHAHGRADDTMNIGGIKISSIEIERVCNEVDDRVFETTAIGVPPLGGGPEQLVIFFVLKDSNDTTIDLNQLRLSFNLGLQKKLNPLFKVTRVVPLSSLPRTATNKIMRRVLRQQFSHFE
B2: AtAAE7: acyl activating enzyme 7 from Arabidopsis thaliana (Uniprot Q8VZF1), C-terminal peroxisomal targeting sequence removed, SEQ ID NO: 9 (protein, listed as Arabidopsis thaliana)
chain: MAATKWRDIDDLPKIPANYTALTPLWFLDRAAVVHPTRKSVIHGSREYTWRQTYDRCRRLASALADRSIGPGSTVAIIAPNIPAMYEAHFGVPMCGAVLNCVNIRLNAPTVAFLLSHSQSSVIMVDQEFFTLAEDSLRLMEEKAGSSFKRPLLIVIGDHTCAPESLNRALSKGAIEYEDFLATGDPNYPWQPPADEWQSIALGYTSGTTASPKGVVLHHRGAYIMALSNPLIWGMQDGAVYLWTLPMFHCNGWCFPWSLAVLSGTSICLRQVTAKEVYSMIAKYKVTHFCAAPVVLNAIVNAPKEDTILPLPHTVHVMTAGAAPPPSVLFSMNQKGFRVAHTYGLSETYGPSTVCAWKPEWDSLPPETQAKLNARQGVRYTGMEQLDVIDTQTGKPVPADGKTAGEIVFRGNMVMKGYLKNPEANKETFAGGWFHSGDIAVKHPDNYIEIKDRSKDVIISGGENISSVEVENVVYHHPAVLEASVVARPDERWQESPCAFVTLKSDYEKHDQNKLAQDIMKFCREKLPAYWVPKSVVFGPLPKTATGKIQKHILRTKAKEMGPVPR

Columns and labels:
[1] = test system: S. cerevisiae; assay: Toxicity of organic phase (overlay/underlay) compounds to growth of the host strain; conditions: for toxicity to growth: compound as organic phase
Text: In-situ liquid-liquid extraction (biphasic fermentation) is a strategy that can be employed in accordance with the present invention for physical separation of product from microorganisms via partitioning into the water immiscible organic liquid phase from an aqueous culture phase. The organic liquid phase or organic phase is present as either an overlay if its density is less than that of the aqueous phase, or an underlay if its density is greater than that of the aqueous phase. Certain properties of the overlay or underlay are considered for production of olivetolic acid/olivetol and other resorcinols such as of formulas IA and IB: (1) non-toxic or low toxicity for growth of the host strain, and/or (2) a favorable partitioning coefficient of the product in the organic phase vs. the aqueous phase, and/or (3) preferably a lower partition coefficient for fed hexanoic acid (for olivetolic acid/olivetol) or other fatty acid such as RCO2H (for other resorcinols) in the organic phase vs. the aqueous phase. Additional properties of the organic phase enhance its suitability for downstream conversion, e.g. and without limitation, to cannabigerol and other cannabinoid compounds, including suitability as a solvent or co-solvent during downstream prenylation or other reactions, and boiling point if downstream separation by distillation is employed.

[2] = test system: hexanoic acid; assay: Two plasmid screening system for relative AAE activity, hexanoic acid feeding; assay type: cell-based, Saccharomyces cerevisiae; conditions: for Olivetol / Olivetolic acid: average production, LSC3-297/pLOA-049 plus AAE plasmid, Delft medium pH 6.5, 3.44 mM hexanoic acid, 48 hours
Text: (§1) In order to perform in vivo screening in Saccharomyces cerevisiae for acyl activating enzyme (AAE) variants with enhanced activity and/or expression, a two plasmid screening system was employed to generate an artificial bottleneck in AAE activity. This bottleneck was generated by natural copy number variation of the two plasmids, with a multi-copy 2 micron episomal plasmid, pLOA-049, harboring an olivetol synthase homologue from C. sativa (CsTKS) fused with a T2A self-cleaving peptide (Kearsey et al., FEBS J. 287:1511-1524, 2020) to a gene encoding olivetol acid cyclase from C. sativa (CsOAC), and a lower copy centromeric plasmid with an autonomous replicating sequence (CEN/ARS) harboring different acyl activating enzymes/acyl-CoA synthetases from different organisms. Markers employed on the 2 micron plasmid were orotidine-5′-phosphate decarboxylase from S. cerevisiae (URA3) and on the CEN/ARS plasmid, the multifunctional histidine biosynthesis gene HIS4 from S. cerevisiae. The cassette architecture in the plasmids was based on integrated cassettes in production strain LSC3-2, with a pGAL1-10 bidirectional promoter driving expression of CsTKS and CsOAC from pGAL1 with a S. cerevisiae CYC1 terminator, and insulated downstream of pGAL10 by a S. cerevisiae GRE3 terminator. Likewise on the CEN/ARS plasmid, a bidirectional pGAL1-10 promoter drives expression of CsAAE1 from pGAL10 with a S. cerevisiae GRE3 terminator, and is insulated downstream of pGAL1 by a S. cerevisiae CYC1 terminator.
(§2) To screen activity of AAE variants, first a CEN/ARS containing plasmid expressing AAEs co-transformed with the 2 micron plasmid expressing CsTKS translationally fused to CsOAC via the T2A self-cleaving peptide into strain LSC3-297 using the transformation method described by Gietz and Schiestl (Nat. Protocols 2:31-34, 2007). Double plasmid transformants were selected on YNB agar with 2% (w/v) glucose and CSM minus histidine and minus uracil (CSM-His-Ura, Sunrise Science Products) and grown in a 30° C. incubator for approximately 48 hours or at room temperature for approximately 72 hours. Individual colonies were picked into wells of 96 deepwell plates containing 0.3 mL per well of Delft medium with 2% (w/v) glucose and 0.75 g/L CSM-His-Ura. Delft medium base contains (per liter solution) 7.5 g ammonium sulfate, 14.4 g potassium phosphate monobasic (added from a 1 M stock solution adjusted to pH 6.5 with sodium hydroxide), 0.5 g magnesium sulfate heptahydrate, 3.6 mL of a trace metal solution (consisting of 130 g/L citric acid monohydrate, 0.574 g/L copper (II) sulfate pentahydrate, 8.07 g/L iron (III) chloride hexahydrate, 0.5 g/L boric acid, 0.333 g/L manganese (II) chloride, 0.2 g/L sodium molybdate, and 4.67 g/L zinc sulfate heptahydrate), and 1.0 ml of a vitamin solution (0.008 g/L biotin, 1.6 g/L calcium pantothenate, 0.008 g/L folic acid, 8 g/L myo-inositol, 1.6 g/L nicotinic acid, 0.8 g/L p-aminobenzoic acid, 1.6 g/L pyridoxal hydrochloride, 0.8 g/L riboflavin, 1.6 g/L thiamine hydrochloride, adjusted to pH […] with sodium hydroxide). Plates were grown for 16-24 hours at 30° C. in a plate shaker incubator maintained at 80% relative humidity and 900 rpm shaking (3 mm diameter throw). Ten microliters of preculture was then used to inoculate wells of 96 deepwell plates containing 0.3 mL per well of Delft medium with 2% (w/v) glucose, 0.75 g/L CSM-His-Ura, either 9.08 mM butyric acid or 3.44 mM hexanoic acid, and for divarin/divarinic acid, additionally 150 mM 2-(N-morpholino) ethanesulfonic acid (MES) at pH 5.5 and with the additional modification of the 1 M potassium phosphate monobasic stock in the Delft medium base also adjusted to pH 5.5 (for olivetol/olivetolic acid production from hexanoic acid, no MES was added and potassium phosphate monobasic solution used in the Delft medium base was at pH 6.5). […]

[3] = test system: butyric acid; assay: Two plasmid screening system for relative AAE activity, butyric acid feeding; assay type: cell-based, Saccharomyces cerevisiae; conditions: for Divarin / Divarinic acid: average production, LSC3-297/pLOA-049 plus AAE plasmid, Delft medium pH 5.5 with 150 mM MES, 9.08 mM butyric acid, 48 hours
Text: as §1, §2

Molecule	toxicity to growth ([1]; under the test conditions)	further results
2,2,4-trimethyl-1,3-pentanediol monoisobutyrate [Texanol]	inhibitory to growth	–
CCCCCCCCCCO [Decanol]	toxic to growth	–
CCCCOC(=O)CCCCCCCCC(=O)OCCCC [Dibutyl sebacate]	completely non-inhibitory to growth	–
CCCCCCCCCCCCCC(=O)OC(C)C [IPM, isopropyl myristate]	non-toxic	–
CCCCCCCC(=O)OC(C)C [Isopropyl octanoate]	moderately inhibitory but allowed for some growth	–
CCCCCCCC(=O)OCC(COC(=O)CCCCCCC)OC(=O)CCCCCCC [Tricaprylin]	fairly toxic, however allowed some growth of strains	–
CCCCCCCCCCCC(=O)OCCCC [butyl laurate]	non-toxic	–
CC(C)(C)OC(=O)CC(=O)OC(C)(C)C [di-tert-butyl malonate]	–	toxicity toward growth of mixtures ([1]; 1-10% (v/v), particularly 1-2.5% (v/v), in IPM and isopar M): much lower toxicity; toxicity to growth ([1]; with galactose addition): appearing toxic or to induce substantial lag; toxicity to growth ([1]; with glucose addition): supported growth of all strains
CCCCOC(=O)CCCCC(=O)OCCCC [dibutyl adipate]	no apparent toxicity	–
CCOC(=O)C(CC)(CC)C(=O)OCC [diethyl diethylmalonate]	–	toxicity to growth ([1]; with galactose addition): substantial lag; toxicity to growth ([1]; with glucose addition): modest growth by most strains
CCOC(=O)CCCCCCCCC(=O)OCC [diethyl sebacate]	moderately growth inhibitory	toxicity to growth ([1]; with galactose addition): substantial lag; toxicity to growth ([1]; with glucose addition): modest growth by most strains
CC(C)OC(=O)CCCCC(=O)OC(C)C [diisopropyl adipate]	Growth was observed	–
CCCCCCCCCCCC [dodecane]	Lack of toxicity	–
CCCCCCCCCC(=O)OCC [ethyl decanoate]	increasingly non-toxic	–
CCCCCCCCCCCC(=O)OCC [ethyl laurate]	non-toxic	–
CCCCCCCCCCCCCC(=O)OCC [ethyl myristate]	non-toxic	–
CCCCCCCCCCCCCCCC [hexadecane]	Lack of toxicity	–
CCCCCCOC(=O)CCCCC [hexyl hexanoate]	moderately non-toxic	–
CCCCCCCCCC(=O)OC [methyl decanoate]	moderately inhibitory to growth but still allowed for growth	–
CCCCCCCCCCCCCC(=O)OC [methyl myristate]	non-toxic	–
CCCCCCCCOC(C)=O [octyl acetate]	toxic	–
CCCCCCCC/C=C\CCCCCCCCO [oleyl alcohol]	supported robust growth	–
CCCCCCCCCCCCCC [tetradecane]	Lack of toxicity	–
B1	–	Olivetol [2]: 2.61 mg/L; Olivetolic acid [2]: 2.99 mg/L; activity as a hexanoyl-CoA synthetase for olivetol and olivetolic acid production ([2]; out of the tested AAE sequences): highest activity; Divarin [3]: 1.58 mg/L; Divarinic acid [3]: 1.51 mg/L
B2	–	Olivetol [2]: 0.74 mg/L; Olivetolic acid [2]: 1.60 mg/L; Divarin [3]: 7.18 mg/L; Divarinic acid [3]: 5.63 mg/L; activity as butyryl-CoA synthetases for divarin and divarinic acid production ([3]; over CsAAE1): several-fold activity improvements
